Assay results published in publication PMC3249837 (ACS chemical neuroscience, 2011).

Test system: PS1ΔE9
Type: binding
Settings: competitor at 10 µM, probes at 200 nM

## CC(C)CC[C@H](c1ccc(Cl)cc1)N1CC[C@@H](CC(=O)O)C[C@H]1c1ccc(C(F)(F)F)cc1 [Compound 1]
  Competition of probe 4 and 5 labeling of PS1ΔE9 proteoliposomes: blocked
